Source: the supplement of paper PMC10307832

Key:
Experiment in all cases: relative viability (nuclei count vs DMSO), 5 days (fraction); higher = more cells survive
AZ3146 + Lapatinib = compound: CN1CCC(CC1)OC2=CC(=C(C=C2)NC3=NC=C4C(=N3)N(C(=O)N4C)C5CCCC5)OC [AZ3146] + CS(=O)(=O)CCNCc1ccc(-c2ccc3ncnc(Nc4ccc(OCc5cccc(F)c5)c(Cl)c4)c3c2)o1 [Lapatinib] (partner 2 µM)
Method in brief: (§1)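 Each reported value is a median over duplicate plates. It expresses relative viability: treated-well nuclei count divided by vehicle-well nuclei count. Lung cancer cell lines in 1536-well plates were dosed by pin tool a day after seeding, alone with one drug or with a fixed anchor-drug dose plus five library-drug doses (not always all listed) in √10 steps, and nuclei were counted after 5 days.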

AZ3146 + Alpelisib = compound: CN1CCC(CC1)OC2=CC(=C(C=C2)NC3=NC=C4C(=N3)N(C(=O)N4C)C5CCCC5)OC [AZ3146] + Cc1nc(NC(=O)N2CCC[C@H]2C(N)=O)sc1-c1ccnc(C(C)(C)C(F)(F)F)c1 [Alpelisib] (partner 2 µM)
Method in brief: as §1

GSK-J4 + Vorinostat = compound: CCOC(=O)CCNc1cc(N2CCc3ccccc3CC2)nc(-c2ccccn2)n1 [GSK-J4] + O=C(CCCCCCC(=O)Nc1ccccc1)NO [Vorinostat] (partner 1 µM)
Method in brief: as §1

GSK-J4 + Decitabine = compound: CCOC(=O)CCNc1cc(N2CCc3ccccc3CC2)nc(-c2ccccn2)n1 [GSK-J4] + Nc1ncn([C@H]2C[C@H](O)[C@@H](CO)O2)c(=O)n1 [Decitabine] (partner 2 µM)
Method in brief: as §1

Cell Line	relative viability (AZ3146 + Lapatinib; first compound 0.08 µM)	relative viability (AZ3146 + Lapatinib; first compound 0.253 µM)	relative viability (AZ3146 + Lapatinib; first compound 0.8 µM)	relative viability (AZ3146 + Lapatinib; first compound 2.53 µM)	relative viability (AZ3146 + Lapatinib; first compound 8 µM)	relative viability (AZ3146 + Alpelisib; first compound 0.08 µM)	relative viability (AZ3146 + Alpelisib; first compound 0.253 µM)	relative viability (AZ3146 + Alpelisib; first compound 0.8 µM)	relative viability (AZ3146 + Alpelisib; first compound 2.53 µM)	relative viability (AZ3146 + Alpelisib; first compound 8 µM)	relative viability (GSK-J4 + Vorinostat; first compound 0.5 µM)	relative viability (GSK-J4 + Vorinostat; first compound 1.581 µM)	relative viability (GSK-J4 + Vorinostat; first compound 15.81 µM)	relative viability (GSK-J4 + Vorinostat; first compound 50 µM)	relative viability (GSK-J4 + Decitabine; first compound 0.5 µM)	relative viability (GSK-J4 + Decitabine; first compound 1.581 µM)	relative viability (GSK-J4 + Decitabine; first compound 15.81 µM)	relative viability (GSK-J4 + Decitabine; first compound 50 µM)	relative viability (GSK-J4 + Vorinostat; first compound 5 µM)	relative viability (GSK-J4 + Decitabine; first compound 5 µM)
COR-L23	1	1.02	0.871	0.923	0.899	0.705	0.74	0.766	0.824	0.639	0.474	0.442	0.413	0.361	0.393	0.384	0.386	0.352		
COR-L 105	0.357	0.36	0.317	0.341	0.254	1.01	1.15	0.86	1.1	0.665	0.899		0.843	0.526	0.723		0.644	0.654	0.833	0.507
EKVX	0.172	0.222	0.225	0.24	0.2	0.865	0.802	0.716	0.981	1	0.686			0.524	0.297		0.324	0.299	0.808	0.355
EMC-BAC-2	0.85	0.845	0.954	0.954	0.987	0.718	0.718	0.768	0.743	0.84	0.494	0.497	0.364	0.457	1	0.862	0.947	0.869		
EPLC-272H	0.897	0.911	0.957	0.951	0.877	0.706	0.925	0.933	0.973	0.964	0.461	0.37	0.335	0.284	0.408	0.33	0.339	0.308	0.599	0.448
H3255	0.23	0.216	0.186	0.267	0.245	0.749	0.649	0.664	0.754	0.656	0.716		0.742	0.742	0.619		0.463	0.409	0.656	0.593
HARA	0.652	0.851	0.662	0.822	0.693	0.629	0.785	0.883	0.909	0.725	0.554	0.498	0.311	0.246	0.506	0.49	0.506	0.369		
HCC-15	0.873	0.819	0.896	0.857	0.832	0.939	0.899	0.864	0.822	0.893	0.903	0.791	0.718	0.503	0.696	0.492	0.536	0.38	0.789	0.581
HCC-44	0.907	0.953	0.999	1.01	0.971	0.676	0.805	0.797	0.807	0.859	1.01	1.09	1.14	1.16	0.932	0.716	1.03	1.06	1.09	0.823
HCC-78		0.488	0.762	0.864	0.574		0.268	0.224	0.367	0.321	0.462	0.435	0.363	0.587	0.726	0.633	0.549	0.621	0.601	0.71
HCC-366	1	1.1	1.01	0.964	0.693	0.357	0.379	0.419	0.433	0.393	0.284	0.287	0.285	0.34	0.33	0.283	0.283	0.277		
HCC-827	0.155	0.191	0.175	0.237	0.191	1.02	0.976	1.08	0.921	0.968	0.873	0.731	0.774	0.787	0.345	0.31	0.292	0.31	0.782	0.482
HOP-62	0.958	0.975	0.941	0.846	1.06	0.896	0.96	0.796	1.07	0.832	0.48	0.355	0.507	0.35	0.257	0.233	0.193	0.225	0.585	0.2
LC-2-ad	0.828	1.04	0.907	0.914	0.631	0.793	0.797	0.866	0.956	0.792	0.787	0.529	0.704	0.528	0.746	0.803	0.776	0.793	0.325	0.866
LCLC-97TM1			1.2	0.861	0.289			0.245	0.3	0.247	0.684	0.442	0.507	0.578	0.213	0.237	0.262	0.215	0.681	0.225
LK-2	0.754	0.961	0.914	1.01	0.841	0.907			1.16	1.66	0.193	0.248	0.126	0.579	0.222	0.283	0.262	0.338	0.243	0.447
